In patent US6835567B1, “PNS cell lines and methods of use therefor” (priority 1998, dated 2004):
Entries after “also recorded” stand apart in the source; their conditions may differ.

Experiments:
[1] = test system: conditionally-immortalized rat neural crest stem cells; test: βIII tubulin immunolabeling, immortalized rat neural crest stem cells; format: cell-based; conditions: with tetracycline, 5 days; LIF 100 ng/ml; EFN = EGF 100 ng/ml, FGF-2 4 ng/ml, NGF 2.0 ng/ml
[2] = test system: differentiated immortalized rat DRG cells; test: Whole-cell patch clamp, ATP current in rat DRG cells; format: cell-based; conditions: for desensitization of elicited currents: 100 μM, 5-second applications, differentiated 3-4 weeks
[3] = test system: HDRGVIII-C10 cells; test: NF160 immunolabeling after differentiation of […]-C10; format: cell-based; conditions: 10 days with tetracycline, human serum, GDNF, CNTF, NGF plus forskolin (10 μM) or retinoic acid (0.5 μM)
Source text: Neuronal differentiation. […] After differentiation, phase-bright cells extending long fasciculating processes were present.

[4] = molecular target: T1, capsaicin receptors (Homo sapiens, UniProt Q8NER1); test: Whole-cell patch clamp, capsaicin current in […]-C10; format: cell-based
T1 construct: endogenous in cells
T1 sequence (Q8NER1 whole entry): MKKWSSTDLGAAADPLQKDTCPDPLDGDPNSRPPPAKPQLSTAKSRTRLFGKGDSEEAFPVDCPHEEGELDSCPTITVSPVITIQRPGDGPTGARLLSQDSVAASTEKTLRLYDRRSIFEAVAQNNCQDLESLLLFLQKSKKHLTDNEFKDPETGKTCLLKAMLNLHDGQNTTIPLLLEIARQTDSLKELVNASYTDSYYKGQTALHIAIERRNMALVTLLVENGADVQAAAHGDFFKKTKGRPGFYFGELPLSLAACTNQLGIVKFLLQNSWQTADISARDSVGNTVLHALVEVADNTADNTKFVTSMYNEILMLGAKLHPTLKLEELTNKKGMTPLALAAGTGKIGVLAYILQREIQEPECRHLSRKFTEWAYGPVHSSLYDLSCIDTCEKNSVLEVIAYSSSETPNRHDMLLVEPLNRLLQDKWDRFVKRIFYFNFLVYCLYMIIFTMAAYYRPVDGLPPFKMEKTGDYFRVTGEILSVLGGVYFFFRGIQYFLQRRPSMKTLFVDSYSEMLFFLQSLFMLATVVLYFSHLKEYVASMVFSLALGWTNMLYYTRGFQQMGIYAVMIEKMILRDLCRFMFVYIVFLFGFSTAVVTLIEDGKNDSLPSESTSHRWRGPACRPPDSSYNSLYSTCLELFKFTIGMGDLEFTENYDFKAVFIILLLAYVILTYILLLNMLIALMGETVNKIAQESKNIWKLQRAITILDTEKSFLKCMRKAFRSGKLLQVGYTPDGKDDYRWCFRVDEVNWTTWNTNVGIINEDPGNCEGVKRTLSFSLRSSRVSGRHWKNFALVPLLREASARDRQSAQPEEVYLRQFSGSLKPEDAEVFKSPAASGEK

[5] = molecular target: T1, capsaicin receptors; test: Cobalt histology for capsaicin sensitivity, […]-C11; format: cell-based
Source text: (§1) In certain aspects of the present invention, conditionally-immortalized PNS progenitor cell lines may be used in a variety of in vitro assays and screens. In one such aspect, the cell lines may be used in in vitro assays for agents that inhibit the capsaicin response. Briefly, a clonal neuronal cell line may be differentiated under conditions in which capsaicin responsiveness can be assessed with a cobalt histological method. Capsaicin can be added to the culture in the presence or absence of a candidate agent, and cobalt uptake evaluated. Agents that block cobalt staining may act as capsaicin receptor antagonists.

[6] = molecular target: T1, capsaicin receptors; test: Cobalt histology for capsaicin sensitivity, […]-C10.6; format: cell-based; conditions: 10 μM capsaicin; differentiated 7 days with T, HS, Fsk, G, C, N plus NT-3
Source text: as §1

[7] = test system: HDRGVIII-C10.6 cells; test: Whole-cell patch clamp characterization of […]-C10.6; format: cell-based, human; conditions: for I Capsaicin: 1 μM; for I Purinergic (αβmeATP): 100 μM
[8] = test system: differentiated immortalized rat DRG cells; test: Whole-cell patch clamp, capsaicin current in rat DRG cells; format: cell-based; conditions: differentiated rat DRG cells (n=6)
[9] = test system: immortalized rat DRG cultures; test: βIII tubulin and NF160 immunolabeling, immortalized rat DRG cultures; format: cell-based; conditions: for βIII-tubulin positive cells: 10 ng/mL in combination with NGF, rat serum and retinoic acid, rat tail collagen substrate
[10] = test system: v-myc oncoprotein; test: Immunocytochemistry for v-myc in […]-C10; format: cell-based, human; conditions: after 6 days of tetracycline treatment (75±1.3% in proliferative condition)
[11] = test system: differentiated HDRGVIII-C10 cells; test: Whole-cell patch clamp, ATP current in […]-C10; format: cell-based, human; conditions: 10 μM; differentiated 1-2 weeks
[12] = test system: HDRGVIII-C11 cells; test: βIII-tubulin-positive neurons after differentiation of […]-C11; format: cell-based, human
[13] = test system: HDRGVIII-C10.6 cells; test: Peripherin immunolabeling after differentiation of […]-C10.6; format: cell-based, human; conditions: T, HS, Fsk, G, C, N, plus NT-3 (25 ng/ml), 5 days (31±9% without NT-3)

## LIF: leukemia inhibitory factor
[1]
  βIII tubulin positive cells: 28.4%

## Nc1ncnc2c1ncn2[C@@H]1O[C@H](COP(=O)(O)OP(=O)(O)OP(=O)(O)O)[C@@H](O)[C@H]1O [ATP]
[2]
  desensitization of elicited currents: ~15%
[2]; after 1 week of differentiation (n=14)
  cells with ATP-activated current: no cells
[2]; after 3 weeks of differentiation
  cells with ATP-activated current: ~30%

## C=C[C@@]1(C)CC(=O)[C@]2(O)[C@@]3(C)[C@@H](O)CCC(C)(C)[C@@H]3[C@H](O)[C@H](OC(C)=O)[C@@]2(C)O1 [forskolin]
[3]
  cells with NF160 staining: 15±2.2%

## CC1=C(/C=C/C(C)=C/C=C/C(C)=C/C(=O)O)C(C)(C)CCC1 [retinoic acid]
[3]
  cells with NF160 staining: 8.1%

## Oc1cc2c(cc1O)CN(C(=S)NCCc1ccc(Cl)cc1)CCC2 [capsazepine]
[4]; 20 μM capsazepine
  effect on response to 1 μM capsaicin: blocked; also recorded: inhibited
[5]; 100 μM capsazepine
  effect on capsaicin (10 μM)-induced cobalt labeling: reduced substantially

## COc1cc(CNC(=O)CCCC/C=C/C(C)C)ccc1O [capsaicin]
[6]
  cells with neuronal morphology exhibiting cobalt uptake: 30.8±2.9%
[7]; Proliferative, held at -80 mV
  I Capsaicin: 0 pA
[7]; THSFskGCN, 8 days
  I Capsaicin: 114 ± 14 pA
[7]; THSFskGCN, 11 days
  I Capsaicin: 217 ± 36 pA
[4]; 1 μM, differentiated cells with neuronal morphology
  response to capsaicin: exhibited responses
[4]; prior to differentiation
  response to capsaicin: no immortalized human PNS HDRGVIII-C10 cells exhibited responses
[5]; 10 μM or 100 μM, differentiated with T, HS, Fsk, G, C, N plus NT-3
  cells with neuronal morphology sensitive to capsaicin (cobalt precipitate): Approximately 30%
[8]
  response to capsaicin: did not exhibit responses

## CN(C)[C@@H]1C(O)=C(C(N)=O)C(=O)[C@@]2(O)C(O)=C3C(=O)c4c(O)cccc4[C@@](C)(O)[C@H]3C[C@@H]12 [tetracycline]
[9]; tetracycline alone
  βIII tubulin positive neurons: ~2.5%
[10]
  percentage of v-myc positive cells: 1.1±0.8%

## NC1=N[C@H](O)[C@H]2[C@H]3O[C@]4(O)O[C@@H]([C@@H](O)[C@@]2(N1)[C@@H]4O)[C@]3(O)CO [TTX, tetrodotoxin]
[7]
  sensitivity of voltage-gated sodium currents: TTX-sensitive

## Nc1ncnc2c1ncn2[C@@H]1O[C@H](COP(=O)(O)CP(=O)(O)OP(=O)(O)O)[C@@H](O)[C@H]1O [αβ-meATP, αβ-methylene-ATP]
[7]; Proliferative, held at -80 mV
  I Purinergic (αβmeATP): 29 ± 15 pA
[7]; THSFskGCN, 8 days
  I Purinergic (αβmeATP): 3 ± 3 pA
[7]; THSFskGCN, 11 days
  I Purinergic (αβmeATP): 226 ± 80 pA
[11]
  currents elicited: Rapidly activating and strongly desensitizing currents
[2]
  desensitization of elicited currents: ~15%
[2]; differentiated rat DRG cells
  cells with αβ-meATP responses: 1 of 20

## IL-1β: interleukin-1β
[9]
  βIII-tubulin positive cells: 33%

B1: NT-3: neurotrophin-3 (protein, UniProt P20783 139-257, looked up)
Neurotrophin-3: YAEHKSHRGEYSVCDSESLWVTDKSSAIDIRGHQVTVLGEIKTGNSPVKQYFYETRCKEARPVKNGCRGIDDKHWNSQCKTSQTYVRALTSENNKLVGWRWIRIDTSCVCALSRKIGRT
[9]; NT-3 added to medium containing NGF plus LIF or CNTF (less than 25% in absence of NT-3)
  βIII tubulin positive cells expressing NF160: ≥ 65%
[12]; NT-3 added to standard differentiating medium (1.4±0.6% without NT-3)
  cells differentiated into βIII-tubulin-positive neurons: 4.0±2.2%
[13]
  cells expressing peripherin: 43±8%

B2: IL-11: interleukin IL-11, differentiating factor (protein, UniProt P20809 22-199, looked up)
Interleukin-11: PGPPPGPPRVSPDPRAELDSTVLLTRSLLADTRQLAAQLRDKFPADGDHNLDSLPTLAMSAGALGALQLPGVLTRLRADLLSYLRHVQWLRRAGGSSLKTLEPELGTLQARLDRLLRRLQLLMSRLALPQPPPDPPAPPLAPPSSAWGGIRAAHAILGGLHLTLDWAVRGLLLLKTRL
[9]
  βIII-tubulin positive cells: 34%
[12]; differentiated with T, HS, Fsk, NGF plus IL-11
  βIII-tubulin-positive neurons: 1.5±0.9%
